Laboratory results from US20260285850A1, “SUBSTITUTED OXAZOLIDINONES AND IMIDAZOLINONES AS HERBICIDES” (FMC CORPORATION, priority 2023, published 2026).

Tests used:
Format in all cases: in vivo
[1] = tested on: barnyardgrass (Echinochloa crus-galli); assay: Test A preemergence soil spray, visual injury rating 0-100; conditions: 10 days; for Barnyardgrass plant response rating: 16 g ai/ha, 0 to 100 scale; for Barnyardgrass plant response rating (0-100): 62 g ai/ha, 0 = no effect, 100 = complete control
Outline: (§1)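 Seeds sown in loam-sand blend got a preemergence directed soil spray, or emerged plants (2-10 cm, one- to two-leaf) got a postemergence spray, of compound in non-phytotoxic solvent with surfactant. After 10 days in greenhouse, injury rated visually versus untreated controls on a 0 (no effect) to 100 (complete control) scale.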

[2] = tested on: blackgrass (Alopecurus myosuroides); assay: as above; conditions: 10 days; for Blackgrass plant response rating: 16 g ai/ha, 0 to 100 scale; for Blackgrass plant response rating (0-100): 62 g ai/ha, 0 = no effect, 100 = complete control
Outline: as §1

[3] = tested on: corn (Zea mays); assay: as above; conditions: 10 days; for Corn plant response rating: 16 g ai/ha, 0 to 100 scale; for Corn plant response rating (0-100): 62 g ai/ha, 0 = no effect, 100 = complete control
Outline: as §1

[4] = tested on: green foxtail (Setaria viridis); assay: as above; conditions: 10 days; for Foxtail, Green plant response rating: 16 g ai/ha, 0 to 100 scale; for Foxtail, Green plant response rating (0-100): 62 g ai/ha, 0 = no effect, 100 = complete control
Outline: as §1

[5] = tested on: kochia (Bassia scoparia); assay: as above; conditions: 10 days; for Kochia plant response rating: 16 g ai/ha, 0 to 100 scale; for Kochia plant response rating (0-100): 62 g ai/ha, 0 = no effect, 100 = complete control
Outline: as §1

[6] = tested on: oat, wild (wild oat, Avena fatua); assay: as above; conditions: 10 days; for Oat, Wild plant response rating: 16 g ai/ha, 0 to 100 scale; for Oat, Wild plant response rating (0-100): 62 g ai/ha, 0 = no effect, 100 = complete control
Outline: as §1

[7] = tested on: ragweed (common ragweed, Ambrosia artemisiifolia); assay: as above; conditions: 10 days; for Ragweed plant response rating: 16 g ai/ha, 0 to 100 scale; for Ragweed plant response rating (0-100): 62 g ai/ha, 0 = no effect, 100 = complete control
Outline: as §1

[8] = tested on: ryegrass, Italian (italian ryegrass, Lolium multiflorum); assay: as above; conditions: 10 days; for Ryegrass, Italian plant response rating: 16 g ai/ha, 0 to 100 scale; for Ryegrass, Italian plant response rating (0-100): 62 g ai/ha, 0 = no effect, 100 = complete control
Outline: as §1

[9] = tested on: soybean (Glycine max); assay: as above; conditions: 10 days; for Soybean plant response rating (0-100): 62 g ai/ha, 0 = no effect, 100 = complete control
Outline: as §1

[10] = tested on: wheat (Triticum aestivum); assay: as above; conditions: 10 days; for Wheat plant response rating: 16 g ai/ha, 0 to 100 scale; for Wheat plant response rating (0-100): 62 g ai/ha, 0 = no effect, 100 = complete control
Outline: as §1

[11] = tested on: barnyardgrass (Echinochloa crus-galli); assay: Test A postemergence application, visual injury rating 0-100; conditions: for Barnyardgrass plant response rating (0-100): 62 g ai/ha, postemergence, 10 days, 0 = no effect, 100 = complete control; for Barnyardgrass plant response rating (0 to 100 scale): Postemergence, 16 g ai/ha, greenhouse 10 days, 0 no effect, 100 complete control
Outline: as §1

[12] = tested on: blackgrass (Alopecurus myosuroides); assay: as above; conditions: for Blackgrass plant response rating (0-100): 62 g ai/ha, postemergence, 10 days, 0 = no effect, 100 = complete control; for Blackgrass plant response rating (0 to 100 scale): Postemergence, 16 g ai/ha, greenhouse 10 days, 0 no effect, 100 complete control
Outline: as §1

[13] = tested on: corn (Zea mays); assay: as above; conditions: for Corn plant response rating (0-100): 62 g ai/ha, postemergence, 10 days, 0 = no effect, 100 = complete control; for Corn plant response rating (0 to 100 scale): Postemergence, 16 g ai/ha, greenhouse 10 days, 0 no effect, 100 complete control
Outline: as §1

[14] = tested on: galium (catchweed bedstraw, Galium aparine); assay: as above; conditions: for Galium plant response rating (0-100): 62 g ai/ha, postemergence, 10 days, 0 = no effect, 100 = complete control; for Galium plant response rating (0 to 100 scale): Postemergence, 16 g ai/ha, greenhouse 10 days, 0 no effect, 100 complete control
Outline: as §1

[15] = tested on: green foxtail (Setaria viridis); assay: as above; conditions: for Foxtail, Green plant response rating (0-100): 62 g ai/ha, postemergence, 10 days, 0 = no effect, 100 = complete control; for Foxtail, Green plant response rating (0 to 100 scale): Postemergence, 16 g ai/ha, greenhouse 10 days, 0 no effect, 100 complete control
Outline: as §1

[16] = tested on: horseweed (Erigeron canadensis); assay: as above; conditions: for Horseweed plant response rating (0-100): 62 g ai/ha, postemergence, 10 days, 0 = no effect, 100 = complete control; for Horseweed plant response rating (0 to 100 scale): Postemergence, 16 g ai/ha, greenhouse 10 days, 0 no effect, 100 complete control
Outline: as §1

[17] = tested on: kochia (Bassia scoparia); assay: as above; conditions: for Kochia plant response rating (0-100): 62 g ai/ha, postemergence, 10 days, 0 = no effect, 100 = complete control; for Kochia plant response rating (0 to 100 scale): Postemergence, 16 g ai/ha, greenhouse 10 days, 0 no effect, 100 complete control
Outline: as §1

[18] = tested on: oat, wild (wild oat, Avena fatua); assay: as above; conditions: for Oat, Wild plant response rating (0-100): 62 g ai/ha, postemergence, 10 days, 0 = no effect, 100 = complete control; for Oat, Wild plant response rating (0 to 100 scale): Postemergence, 16 g ai/ha, greenhouse 10 days, 0 no effect, 100 complete control
Outline: as §1

[19] = tested on: palmer (palmer amaranth, palmer pigweed, Amaranthus palmeri); assay: as above; conditions: for Pigweed, Palmer plant response rating (0-100): 62 g ai/ha, postemergence, 10 days, 0 = no effect, 100 = complete control; for Pigweed, Palmer plant response rating (0 to 100 scale): Postemergence, 16 g ai/ha, greenhouse 10 days, 0 no effect, 100 complete control
Outline: as §1

[20] = tested on: ragweed (common ragweed, Ambrosia artemisiifolia); assay: as above; conditions: for Ragweed plant response rating (0-100): 62 g ai/ha, postemergence, 10 days, 0 = no effect, 100 = complete control; for Ragweed plant response rating (0 to 100 scale): Postemergence, 16 g ai/ha, greenhouse 10 days, 0 no effect, 100 complete control
Outline: as §1

[21] = tested on: ryegrass, Italian (italian ryegrass, Lolium multiflorum); assay: as above; conditions: for Ryegrass, Italian plant response rating (0-100): 62 g ai/ha, postemergence, 10 days, 0 = no effect, 100 = complete control; for Ryegrass, Italian plant response rating (0 to 100 scale): Postemergence, 16 g ai/ha, greenhouse 10 days, 0 no effect, 100 complete control
Outline: as §1

[22] = tested on: soybean (Glycine max); assay: as above; conditions: for Soybean plant response rating (0-100): 62 g ai/ha, postemergence, 10 days, 0 = no effect, 100 = complete control; for Soybean plant response rating (0 to 100 scale): Postemergence, 16 g ai/ha, greenhouse 10 days, 0 no effect, 100 complete control
Outline: as §1

[23] = tested on: wheat (Triticum aestivum); assay: as above; conditions: for Wheat plant response rating (0-100): 62 g ai/ha, postemergence, 10 days, 0 = no effect, 100 = complete control; for Wheat plant response rating (0 to 100 scale): Postemergence, 16 g ai/ha, greenhouse 10 days, 0 no effect, 100 complete control
Outline: as §1

[24] = tested on: barnyardgrass (Echinochloa crusgalli); assay: Test B flooded paddy test, visual plant response rating 0-100; conditions: 250 g ai/ha, Flood, applied to paddy water, evaluated after 13 days
Outline: (§2)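 Each species was raised to two leaves before flooding to a 3 cm depth and dosing the water with compound. Injury was assessed by eye after 13 days under greenhouse conditions.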

[25] = tested on: ducksalad (Heteranthera limosa); assay: as above; conditions: 250 g ai/ha, Flood, applied to paddy water, evaluated after 13 days
Outline: as §2

[26] = tested on: rice (Oryza sativa); assay: as above; conditions: 250 g ai/ha, Flood, applied to paddy water, evaluated after 13 days
Outline: as §2

[27] = tested on: sedge, umbrella (small-flower umbrella sedge, Cyperus difformis); assay: as above; conditions: 250 g ai/ha, Flood, applied to paddy water, evaluated after 13 days
Outline: as §2

CC1(C(=O)NC2CC=C(C(=O)OCC(F)(F)F)C2)CN(c2cc(F)cc(Cl)c2)C(=O)O1 (stereo not drawn) [Compound 141]
50: Ryegrass, Italian plant response rating [8] | Plant response rating, Rice (0 to 100 scale, 0 is no effect and 100 is complete control) [26]
90: Foxtail, Green plant response rating (0-100) [4] | Ryegrass, Italian plant response rating (0-100) [8] | Wheat plant response rating (0-100) [10] | Blackgrass plant response rating (0-100) [12] | Blackgrass plant response rating (0 to 100 scale) [12] | Foxtail, Green plant response rating (0-100) [15] | Foxtail, Green plant response rating (0 to 100 scale) [15] | Kochia plant response rating (0-100) [17] | Pigweed, Palmer plant response rating (0-100) [19] | Wheat plant response rating (0-100) [23] | Wheat plant response rating (0 to 100 scale) [23] | Plant response rating, Barnyardgrass (0 to 100 scale, 0 is no effect and 100 is complete control) [24]
80: Blackgrass plant response rating (0-100) [2] | Kochia plant response rating (0-100) [5] | Wheat plant response rating [10] | Galium plant response rating (0-100) [14] | Galium plant response rating (0 to 100 scale) [14] | Horseweed plant response rating (0-100) [16] | Oat, Wild plant response rating (0-100) [18] | Ryegrass, Italian plant response rating (0-100) [21]
85: Plant response rating, Sedge, Umbrella (0 to 100 scale, 0 is no effect and 100 is complete control) [27]
20: Foxtail, Green plant response rating [4] | Oat, Wild plant response rating (0 to 100 scale) [18] | Ryegrass, Italian plant response rating (0 to 100 scale) [21]
30: Ragweed plant response rating (0 to 100 scale) [20]
100: Barnyardgrass plant response rating (0-100) [11] | Barnyardgrass plant response rating (0 to 100 scale) [11] | Corn plant response rating (0-100) [13] | Corn plant response rating (0 to 100 scale) [13]
10: Corn plant response rating [3]
65: Plant response rating, Ducksalad (0 to 100 scale, 0 is no effect and 100 is complete control) [25]
60: Horseweed plant response rating (0 to 100 scale) [16] | Ragweed plant response rating (0-100) [20]
40: Oat, Wild plant response rating (0-100) [6]
70: Barnyardgrass plant response rating (0-100) [1] | Corn plant response rating (0-100) [3] | Soybean plant response rating (0-100) [9] | Kochia plant response rating (0 to 100 scale) [17] | Pigweed, Palmer plant response rating (0 to 100 scale) [19] | Soybean plant response rating (0-100) [22] | Soybean plant response rating (0 to 100 scale) [22]
0: Barnyardgrass plant response rating [1] | Blackgrass plant response rating [2] | Kochia plant response rating [5] | Oat, Wild plant response rating [6] | Ragweed plant response rating [7] | Ragweed plant response rating (0-100) [7] | Soybean plant response rating ([9]; 16 g ai/ha, 0 to 100 scale)

CC1(C(=O)NC2CC=C(C(=O)OCC(F)(F)F)C2)CN(c2cc(F)cc(Cl)c2)C(=O)O1 (stereo not drawn) [Compound 142]
0: Barnyardgrass plant response rating [1] | Barnyardgrass plant response rating (0-100) [1] | Blackgrass plant response rating [2] | Blackgrass plant response rating (0-100) [2] | Corn plant response rating [3] | Corn plant response rating (0-100) [3] | Foxtail, Green plant response rating [4] | Foxtail, Green plant response rating (0-100) [4] | Kochia plant response rating [5] | Kochia plant response rating (0-100) [5] | Oat, Wild plant response rating [6] | Oat, Wild plant response rating (0-100) [6] | Ragweed plant response rating [7] | Ragweed plant response rating (0-100) [7] | Ryegrass, Italian plant response rating [8] | Ryegrass, Italian plant response rating (0-100) [8] | Soybean plant response rating (0-100) [9] | Wheat plant response rating [10] | Wheat plant response rating (0-100) [10] | Barnyardgrass plant response rating (0-100) [11] | Barnyardgrass plant response rating (0 to 100 scale) [11] | Blackgrass plant response rating (0-100) [12] | Blackgrass plant response rating (0 to 100 scale) [12] | Corn plant response rating (0-100) [13] | Corn plant response rating (0 to 100 scale) [13] | Galium plant response rating (0-100) [14] | Galium plant response rating (0 to 100 scale) [14] | Foxtail, Green plant response rating (0-100) [15] | Foxtail, Green plant response rating (0 to 100 scale) [15] | Horseweed plant response rating (0-100) [16] | Horseweed plant response rating (0 to 100 scale) [16] | Kochia plant response rating (0-100) [17] | Kochia plant response rating (0 to 100 scale) [17] | Oat, Wild plant response rating (0-100) [18] | Oat, Wild plant response rating (0 to 100 scale) [18] | Pigweed, Palmer plant response rating (0-100) [19] | Pigweed, Palmer plant response rating (0 to 100 scale) [19] | Ragweed plant response rating (0-100) [20] | Ragweed plant response rating (0 to 100 scale) [20] | Ryegrass, Italian plant response rating (0-100) [21] | Ryegrass, Italian plant response rating (0 to 100 scale) [21] | Soybean plant response rating (0-100) [22] | Soybean plant response rating (0 to 100 scale) [22] | Wheat plant response rating (0-100) [23] | Wheat plant response rating (0 to 100 scale) [23] | Plant response rating, Barnyardgrass (0 to 100 scale, 0 is no effect and 100 is complete control) [24] | Plant response rating, Ducksalad (0 to 100 scale, 0 is no effect and 100 is complete control) [25] | Plant response rating, Rice (0 to 100 scale, 0 is no effect and 100 is complete control) [26] | Plant response rating, Sedge, Umbrella (0 to 100 scale, 0 is no effect and 100 is complete control) [27]
